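Tested at 5 concentrations; 48 h exposure; 96-well plates; endpoints linearly interpolated, else capped at highest concentration. The concentration for 50% growth inhibition is given as GI50.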 Active and inactive are the calls of the source. Rule as the data show it: active = GI50 up to about 1.1 µM and inactive = higher.
Experiments:
Test in all cases: NCI anticancer screen, dose series, 48 h
NCI/ADR-RES = system: NCI/ADR-RES
HT-29 = system: HT-29
MDA-MB-231 = system: MDA-MB-231
HOP-92 = system: HOP-92
OVCAR-3 = system: OVCAR-3
HCC 2998 = system: HCC 2998
K562 = system: K562
SF-539 = system: SF-539
SN12C = system: SN12C
A549 = system: A549
RPMI-8226 = system: RPMI-8226
KM12 = system: KM12
OVCAR-8 = system: OVCAR-8
ACHN = system: ACHN
IGROV-1 = system: IGROV-1
NCI-H23 = system: NCI-H23
BT-549 = system: BT-549
U-251 = system: U-251
SNB-75 = system: SNB-75

Compound | GI50 (NCI/ADR-RES) | GI50 (HT-29) | GI50 (MDA-MB-231) | GI50 (HOP-92) | GI50 (OVCAR-3) | GI50 (HCC 2998) | GI50 (K562) | GI50 (SF-539) | GI50 (SN12C) | GI50 (A549) | GI50 (RPMI-8226) | GI50 (KM12) | GI50 (OVCAR-8) | GI50 (ACHN) | GI50 (IGROV-1) | GI50 (NCI-H23) | GI50 (BT-549) | GI50 (U-251) | GI50 (SNB-75)
CCCC(c1cc(C(C)(C)C)c(O)cc1C)c1cc(C(C)(C)C)c(O)cc1C | 3.4 µM (inactive) | 6.65 µM (inactive) | 3.56 µM (inactive) | 8.41 µM (inactive) | 1.81 µM (inactive) | 1.75 µM (inactive) | 2.23 µM (inactive) | 2.39 µM (inactive) | 1.94 µM (inactive) | 2.99 µM (inactive) | 2.24 µM (inactive) | 3.32 µM (inactive) | 4.03 µM (inactive) | 2.67 µM (inactive) | 4.04 µM (inactive) | 2.65 µM (inactive) | 9.79 µM (inactive) | 2.65 µM (inactive) | –
CCOP(=O)(OCC)C(Nc1cccc([N+](=O)[O-])c1)c1ccccc1 (stereo unspecified) | 97.1 µM (inactive) | 75 µM (inactive) | 58.9 µM (inactive) | 62.4 µM (inactive) | > 100 µM (inactive) | > 100 µM (inactive) | 38.2 µM (inactive) | > 100 µM (inactive) | > 100 µM (inactive) | 57.1 µM (inactive) | 76.7 µM (inactive) | > 100 µM (inactive) | > 10 µM (inactive) | > 100 µM (inactive) | 0.108 µM (active) | > 100 µM (inactive) | > 100 µM (inactive) | > 100 µM (inactive) | 71.9 µM (inactive)
c1ccc2sc(SCCSc3nc4ccccc4s3)nc2c1 | > 100 µM (inactive) | > 100 µM (inactive) | > 100 µM (inactive) | > 100 µM (inactive) | > 100 µM (inactive) | 20.3 µM (inactive) | > 100 µM (inactive) | – | > 100 µM (inactive) | > 100 µM (inactive) | > 100 µM (inactive) | 52.4 µM (inactive) | > 100 µM (inactive) | > 100 µM (inactive) | > 100 µM (inactive) | > 100 µM (inactive) | > 100 µM (inactive) | > 100 µM (inactive) | 74.3 µM (inactive)
N#C/C(=C/N1C(=O)/C(=C/c2ccc([N+](=O)[O-])cc2)SC1=S)c1nc2ccccc2s1 | 32.7 µM (inactive) | 31.2 µM (inactive) | 12.8 µM (inactive) | 17.5 µM (inactive) | 3.48 µM (inactive) | 14.2 µM (inactive) | 17.5 µM (inactive) | 28.9 µM (inactive) | 23.5 µM (inactive) | 25.6 µM (inactive) | 11.1 µM (inactive) | 28.2 µM (inactive) | 37.9 µM (inactive) | 17.3 µM (inactive) | 12.3 µM (inactive) | 20.7 µM (inactive) | 19.4 µM (inactive) | 15.2 µM (inactive) | 25.1 µM (inactive)
Cc1cc2c(O)c(c1)COCc1cc(C)cc(c1O)COCc1cc(C)cc(c1O)COC2 | > 100 µM (inactive) | 95.3 µM (inactive) | 72.8 µM (inactive) | > 100 µM (inactive) | > 100 µM (inactive) | > 100 µM (inactive) | > 100 µM (inactive) | > 100 µM (inactive) | > 100 µM (inactive) | > 100 µM (inactive) | > 100 µM (inactive) | > 100 µM (inactive) | 50.1 µM (inactive) | > 100 µM (inactive) | – | > 100 µM (inactive) | > 100 µM (inactive) | > 100 µM (inactive) | 80.5 µM (inactive)
O=C1C(Cl)=C(N2CCN(c3ccccn3)CC2)C(=O)c2ncccc21 | 2.33 µM (inactive) | 3.13 µM (inactive) | 1.69 µM (inactive) | 1.88 µM (inactive) | 1.69 µM (inactive) | 16.7 µM (inactive) | 1.33 µM (inactive) | 2.05 µM (inactive) | 2.61 µM (inactive) | 6.56 µM (inactive) | 2 µM (inactive) | 3.53 µM (inactive) | 1.32 µM (inactive) | 2.33 µM (inactive) | 2.64 µM (inactive) | 1.89 µM (inactive) | 1.79 µM (inactive) | 4.38 µM (inactive) | 6.21 µM (inactive)
C[C@H](CCc1nc(C#N)c(N)o1)[C@H]1CC[C@H]2[C@@H]3[C@@H](O)CC4C[C@@H](O)CC[C@]4(C)[C@H]3C[C@@H](O)[C@]12C (stereo partly specified) | > 78.9 µM (inactive) | 20.2 µM (inactive) | 25.6 µM (inactive) | 22.2 µM (inactive) | 17.7 µM (inactive) | 19.1 µM (inactive) | 23.1 µM (inactive) | 17.9 µM (inactive) | 20.6 µM (inactive) | 29.4 µM (inactive) | 6.75 µM (inactive) | 17.7 µM (inactive) | 12.9 µM (inactive) | 26.4 µM (inactive) | 10.2 µM (inactive) | 24 µM (inactive) | 9.86 µM (inactive) | 20.7 µM (inactive) | 10.3 µM (inactive)
CC(=O)NC1C(Sc2ncn(C3OC(CO)C(O)C(O)C3NC(C)=O)n2)OC(CO)C(O)C1O (stereo unspecified) | > 100 µM (inactive) | > 100 µM (inactive) | > 100 µM (inactive) | > 100 µM (inactive) | > 100 µM (inactive) | > 100 µM (inactive) | – | > 100 µM (inactive) | > 100 µM (inactive) | > 100 µM (inactive) | > 100 µM (inactive) | > 100 µM (inactive) | > 100 µM (inactive) | > 100 µM (inactive) | > 100 µM (inactive) | > 100 µM (inactive) | > 100 µM (inactive) | > 100 µM (inactive) | –
O=C(c1ccc(Cl)c(Cl)c1)N(Cc1cccnc1)C(=S)N(Cc1cccnc1)C(=O)c1ccc(Cl)c(Cl)c1 | 31.3 µM (inactive) | 24 µM (inactive) | 33.1 µM (inactive) | 36.1 µM (inactive) | 25.5 µM (inactive) | 20.5 µM (inactive) | 30.3 µM (inactive) | 22.1 µM (inactive) | 24.1 µM (inactive) | > 100 µM (inactive) | 5.5 µM (inactive) | 28.1 µM (inactive) | 30.5 µM (inactive) | 18.8 µM (inactive) | – | 37.8 µM (inactive) | 22.9 µM (inactive) | 29.3 µM (inactive) | 38.4 µM (inactive)
C/C(=N\NC(=S)NC(C)C)c1nc2cccnc2[nH]1 | 40.5 µM (inactive) | 12.8 µM (inactive) | > 26.7 µM (inactive) | 39.9 µM (inactive) | 6.62 µM (inactive) | 19.4 µM (inactive) | 4.48 µM (inactive) | > 37.9 µM (inactive) | > 56.5 µM (inactive) | 31.5 µM (inactive) | > 100 µM (inactive) | 65.8 µM (inactive) | 7.98 µM (inactive) | 21.9 µM (inactive) | 19.8 µM (inactive) | – | 15.5 µM (inactive) | 21.3 µM (inactive) | 28.1 µM (inactive)
C[C@H]1C=C2[C@@H]3CC(C)(C(=O)O)CC[C@]3(C)CC[C@]2(C)[C@]2(C)CC[C@H]3C(C)(C)[C@@H](OC(=O)c4cccc5c(=O)c6ccccc6[nH]c45)CC[C@]3(C)[C@@H]12 (stereo partly specified) | 54.6 µM (inactive) | > 100 µM (inactive) | > 100 µM (inactive) | > 100 µM (inactive) | > 100 µM (inactive) | 88.7 µM (inactive) | 54.5 µM (inactive) | > 100 µM (inactive) | > 100 µM (inactive) | 57.5 µM (inactive) | 43 µM (inactive) | 37.2 µM (inactive) | 41.7 µM (inactive) | 67.3 µM (inactive) | > 100 µM (inactive) | 44.3 µM (inactive) | 47.8 µM (inactive) | 81.5 µM (inactive) | > 100 µM (inactive)
CCn1sc2ccccc2c1=O | 18.2 µM (inactive) | 14.4 µM (inactive) | 9.57 µM (inactive) | 10.1 µM (inactive) | 12.9 µM (inactive) | 17.4 µM (inactive) | 4.58 µM (inactive) | 13.5 µM (inactive) | 5.32 µM (inactive) | 16.1 µM (inactive) | 4.23 µM (inactive) | 6.89 µM (inactive) | 9.12 µM (inactive) | 7.62 µM (inactive) | 6.73 µM (inactive) | 13 µM (inactive) | 11.1 µM (inactive) | 6 µM (inactive) | 13.7 µM (inactive)
COc1ncc(C#CC(=O)c2ccccc2)c(OC)n1 | 2.72 µM (inactive) | 1.88 µM (inactive) | 1.95 µM (inactive) | 2.15 µM (inactive) | 5.11 µM (inactive) | 6.12 µM (inactive) | 0.726 µM (active) | – | 1.4 µM (inactive) | 11.6 µM (inactive) | 2.33 µM (inactive) | 6.85 µM (inactive) | 2.78 µM (inactive) | 1.77 µM (inactive) | 2.1 µM (inactive) | 4.33 µM (inactive) | 2.17 µM (inactive) | 4.71 µM (inactive) | 5.2 µM (inactive)
Cc1cc(=O)oc2cc(OC(=O)N(CCCl)CCCl)ccc12 | 99.1 µM (inactive) | > 100 µM (inactive) | > 100 µM (inactive) | 18.2 µM (inactive) | > 100 µM (inactive) | > 100 µM (inactive) | 68.5 µM (inactive) | > 100 µM (inactive) | > 100 µM (inactive) | > 100 µM (inactive) | 61.4 µM (inactive) | > 100 µM (inactive) | > 100 µM (inactive) | > 100 µM (inactive) | 94.4 µM (inactive) | > 100 µM (inactive) | 44.7 µM (inactive) | > 100 µM (inactive) | 50.7 µM (inactive)
CCNC(=S)N/N=C(\C)c1cccc(C)n1 | 8.45 µM (inactive) | 3.09 µM (inactive) | 7.36 µM (inactive) | 13.5 µM (inactive) | 0.299 µM (active) | 3.13 µM (inactive) | 1.78 µM (inactive) | 18.7 µM (inactive) | 11.8 µM (inactive) | 20.6 µM (inactive) | – | 20.3 µM (inactive) | 3.44 µM (inactive) | 9.27 µM (inactive) | 4.36 µM (inactive) | 23 µM (inactive) | 31.5 µM (inactive) | 7.43 µM (inactive) | 75.2 µM (inactive)
